The values that follow come from patent US8962651B2, “Compounds for the treatment of hepatitis C” (Bristol-Myers Squibb Company, priority 2013, dated 2015).

Data set [1] concerns the target HCV NS5B (Hepatitis C virus genotype 1b (isolate Con1) (HCV), UniProt Q9WMX2). Kind of data set: HCV NS5B RdRp enzyme assay. In kind it is biochemical, HCV genotype 1b (Con1). Here is the method: Each untagged protein was expressed with an 18 amino acid C-terminal truncation to enhance the solubility. The E. coli competent cell line BL21(DE3) was used for expression of the protein. […] The cultures were cooled to 20° C. and induced with 1 mM IPTG. Fresh ampicillin was added to a final concentration of 50 μg/mL and the cells were grown overnight at 20° C.
The lysis buffer consisted of 20 mM Tris-HCl, pH 7.4, 500 mM NaCl, 0.5% triton X-100, 1 mM DTT, 1 mM EDTA, 20% glycerol, 0.5 mg/mL lysozyme, 10 mM MgCl2, 15 ug/mL deoxyribonuclease I, and Complete TM protease inhibitor tablets (Roche). After addition of the lysis buffer, frozen cell pellets were resuspended using a tissue homogenizer. To reduce the viscosity of the sample, aliquots of the lysate were sonicated on ice using a microtip attached to a Branson sonicator. The sonicated lysate was centrifuged at 100,000×g for 30 minutes at 4° C. and filtered through a 0.2 μm filter unit (Corning).
The protein was purified using two sequential chromatography steps: Heparin sepharose CL-6B and polyU sepharose 4B. The chromatography buffers were identical to the lysis buffer but contained no lysozyme, deoxyribonuclease I, MgCl2 or protease inhibitor and the NaCl concentration of the buffer was adjusted according to the requirements for charging the protein onto the column. Each column was eluted with a NaCl gradient which varied in length from 5-50 column volumes depending on the column type. […] The enzyme was aliquoted and stored at −80° C.
An on-bead solid phase homogeneous assay was used in a 384-well format to assess NS5B inhibitors (WangY-K, Rigat K, Roberts S, and Gao M (2006) Anal Biochem, 359: 106-111). The biotinylated oligo dT12 primer was captured on streptavidin-coupled imaging beads (GE, RPNQ0261) by mixing primer and beads in 1× buffer and incubating at room temperature for three hours. Unbound primer was removed after centrifugation. The primer-bound beads were resuspended in 3× reaction mix (20 mM Hepes buffer, pH 7.5, dT primer coupled beads, poly A template, ^3H-UTP, and RNAse inhibitor (Promega N2515)). Compounds were serially diluted 1:3 in DMSO and aliquoted into assay plates. […]
Reactions were allowed to proceed for 24 hours at 30° C. and terminated by the addition of 50 mM EDTA (5 μL). After incubating for at least 15 minutes, plates were read on an Amersham LEADseeker multimodality imaging system.
IC50 values for compounds were determined using ten different [I]. IC50 values were calculated from the inhibition using the four-parameter logistic formula y=A+((B−A)/(1+((C/x)^D))), where A and B denote minimal and maximal % inhibition, respectively, C is the IC50, D is hill slope and x represents compound concentration.

The test system of data set [2] is genotype 1b (Con-1) HCV replicon. As to the kind of experiment: HCV replicon luciferase assay. The conditions noted are these: Hepatitis C virus, Huh-7, 72 h, 1b replicon, Huh-7 cells, Renilla luciferase, 3 days incubation. In kind it is cell-based. Here is the method: The cell lines used to evaluate compounds consist of a human hepatocyte derived cell line (Huh-7) that constitutively expresses a genotype 1b (Con-1) HCV replicon or a genotype 1b (Con-1) HCV replicon with an asparagine replacing the cysteine at amino acid 316, or a genotype 2a (JFH-1) replicon, containing a Renilla luciferase reporter gene. These cells were maintained in Dulbecco's modified Eagle medium (DMEM) containing 10% FBS, 100 U/mL penicillin/streptomycin and 1.0 mg/mL G418.
After 3 days incubation at 37° C., cells were analyzed for Renilla Luciferase activity using the EnduRen substrate (Promega cat #E6485) according to the manufacturer's directions. Briefly, the EnduRen substrate was diluted in DMEM and then added to the plates to a final concentration of 7.5 μM. The plates were incubated for at least 1 h at 37° C. then read on a Viewlux Imager (PerkinElmer) using a luminescence program.

The conditions of data set [3]: extended dosing, combination with interferon and ribavirin; cited from earlier work.
Data set [4] relates to HCV. The conditions noted are these: cited from earlier work.
Setting [5] is: 1b enzyme, 7 nM NS5B, 24 hours at 30° C., read-out: IC50.

Like-named read-outs stand apart in the source and are kept apart here.

Chain of HCV NS5B (Q9WMX2 2420-2992): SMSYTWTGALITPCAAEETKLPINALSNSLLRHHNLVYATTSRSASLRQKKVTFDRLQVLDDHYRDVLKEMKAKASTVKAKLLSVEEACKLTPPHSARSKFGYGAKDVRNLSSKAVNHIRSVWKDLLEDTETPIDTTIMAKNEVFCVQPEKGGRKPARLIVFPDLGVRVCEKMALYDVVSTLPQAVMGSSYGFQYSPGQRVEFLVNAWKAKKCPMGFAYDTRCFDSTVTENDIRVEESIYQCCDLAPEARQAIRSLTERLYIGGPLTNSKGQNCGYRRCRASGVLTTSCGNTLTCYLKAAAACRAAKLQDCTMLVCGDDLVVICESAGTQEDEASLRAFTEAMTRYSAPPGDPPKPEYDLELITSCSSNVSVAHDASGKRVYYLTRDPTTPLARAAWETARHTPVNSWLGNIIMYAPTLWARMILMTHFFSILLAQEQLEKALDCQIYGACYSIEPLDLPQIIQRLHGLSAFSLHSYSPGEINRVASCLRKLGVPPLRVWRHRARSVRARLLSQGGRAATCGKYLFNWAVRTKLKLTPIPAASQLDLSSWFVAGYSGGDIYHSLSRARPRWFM

Consider `CNC(=O)c1c(-c2ccc(F)cc2)oc2nc(CCC(F)(F)F)c(-c3cccc(C(=O)NC4(c5ncon5)CCC4)c3)cc12` [Example 4, 5-(3-((1-(1,2,4-oxadiazol-3-yl)cyclobutyl)carbamoyl)phenyl)-2-(4-fluorophenyl)-N-methyl-6-(3,3,3-trifluoropropyl)furo[2,3-b]pyridine-3-carboxamide], for which, in data set [1] (setting [5]), the IC50 was determined as 2.05 nM. Further, the EC50 in data set [2] is 2.41 nM.

As for `CNC(=O)c1c(-c2ccc(F)cc2)oc2nc(CCC(F)(F)F)c(-c3cccc(C(=O)NC(C)(C)c4nc(C)no4)c3)cc12` [Example 9, 2-(4-fluorophenyl)-N-methyl-5-(3-((2-(3-methyl-1,2,4-oxadiazol-5-yl)propan-2-yl)carbamoyl)phenyl)-6-(3,3,3-trifluoropropyl)furo[2,3-b]pyridine-3-carboxamide], the IC50 in data set [1] (setting [5]) stood at 2.87 nM. Moreover, in data set [2], the EC50 amounted to 2.11 nM.

Regarding `CNC(=O)c1c(-c2ccc(F)cc2)oc2nc(NCC(F)(F)F)c(-c3ccc(F)c(C(=O)NC(C)(C)c4ncon4)c3)cc12` [Example 13, 5-(3-((2-(1,2,4-oxadiazol-3-yl)propan-2-yl)carbamoyl)-4-fluorophenyl)-2-(4-fluorophenyl)-N-methyl-6-((2,2,2-trifluoroethyl)amino)furo[2,3-b]pyridine-3-carboxamide], the IC50 in data set [1] (setting [5]) was 3.42 nM. This compound registered a concentration giving a half-maximal response (EC50) in data set [2] of 5.76 nM.

Consider `[2H]C([2H])([2H])Oc1ncc(-c2cc3c(C(=O)NC)c(-c4ccc(F)cc4)oc3nc2CCC(F)(F)F)cc1C(=O)NC(c1ncon1)(C([2H])([2H])[2H])C([2H])([2H])[2H]` [Example 17, 5-[2-(4-fluorophenyl)-3-(methylcarbamoyl)-6-(3,3,3-trifluoropropyl)furo[2,3-b]pyridin-5-yl]-2-(^2H3)methoxy-N-[2-(1,2,4-oxadiazol-3-yl)(^2H6)propan-2-yl]pyridine-3-carboxamide], for which the IC50 in data set [1] came to 2.4 nM.

`CNC(=O)c1c(-c2ccc(F)cc2)oc2cc(N(CCO)S(C)(=O)=O)c(C3CC3)cc12` [HCV-796]: the hepatic toxicity result in data set [3] is on record as “hepatic toxicity observed during extended dosing of the combination regimens”. In data set [4] (single agent, transient decrease then rebound during dosing), the “HCV RNA levels in patients” value is reported as “reduce HCV RNA levels in patients”.

Turning to alpha-interferon and ribavirin, the sustained efficacy in data set [4] (combination therapy) is 40 % of patients.
